Assay results reported in patent US12269808B2, “Amino dithioperacid thioester compound, preparation method therefor, and use thereof” (FUDAN UNIVERSITY, priority 2019, dated 2025).

Assays:
[1] = system: mouse myoblasts (C2C12) myotubes; test: C2C12 myotube atrophy induced by C26 cell culture medium (HE staining, myotube diameter); assay type: cell-based; settings: for Myotube atrophy reversal rate (%): 48 h
From the text: Carbamo(dithioperoxo)thioate analogs alleviate mouse myoblasts (C2C12) atrophy induced by mouse colon cancer cell (C26).
The diameter measurement method was used to evaluate the diameter of myotubes differentiated from mouse myoblasts (C2C12). The staining method used in the experiment was hematoxylin-eosin staining, referred to as HE staining. The hematoxylin stain is alkaline, positively charged, and easily binds to negatively charged and acidic deoxyribonucleic acid (DNA) in the nucleus with ionic bonding to show blue; while eosin is an acidic dye that dissociates into negatively charged anions in water and easily binds to the positively charged amino groups of proteins in the cytoplasm to show red. The stained cells were placed under a high-magnification microscope to take photos (magnification power: 400), and the diameter of myotubes could be counted using image J software.
The above method allows to evaluate the effect of the drug on the muscle atrophy cell model. The specific method is as follows.
C2C12 cells were seeded in 24-well plates in a culture medium of high-glucose DMEM medium containing 10% FBS and 1% P/S, and placed in a 5% CO2, 37° C. environment. When the cell density reaches 50%˜60%, the culture medium was changed into 2% HS differentiation medium (high-glucose DMEM medium containing 2% HS and 1% P/S); the differentiation medium was changed every 48 h until mature on day 5 or day 6. In addition, C26 cells were inoculated in T75 flasks, and the culture medium was changed into high-glucose DMEM medium containing 10% FBS and 1% P/S, and placed in a 5% CO2, 37° C. environment. While C26 cells (6×10^6 cells/flasks) were passaged, add 20 mL of culture medium to sequentially subculture for 48 h. To obtain the C26 supernatant, centrifuge C26 culture medium at 1000 rpm for 3 min and then at 4000 rpm for 10 min successively. The C26 supermatant and 2% HS differentiation medium were mixed 1:1 (volume ratio) as a muscle atrophy inducing medium. Except for the control group with 2% HS differentiation medium, other each group was added with the equal amounts of muscle atrophy-inducing medium and one group was used as the model group, and the rest groups were used as the experimental groups for drug administration. At the same time, carbamo(dithioperoxo)thioate compounds were added into the cells at the following gradient concentrations.
Wherein, the serial numbers correspond to the numbers of the accompanying figures, that is, FIG. 1-46 correspond to the samples of serial numbers 1-46 in Table 1. μM refers to μmol/L.
Myotube diameter was measured as follows.
After 48 h of action, the myotubes were fixed with fixative solution (anhydrous ethanol:formaldehyde:glacial acetic acid volume ratio=20:2:1) for more than 1 h, stained using hematoxylin-eosin staining method, and placed under a high-magnification microscope to acquire images and counted the diameter of myotubes using image J. The muscle atrophy reversal rate was calculated according to the following equation. Muscle atrophy reversal rate=(Average value of myotubes in drug administration group−Average value of myotubes in model group)/(Average value of myotubes in control group−Average value of myotubes in model group)×100%

3T3-L1 adipocytes = test: 3T3-L1 adipocyte lipolysis induced by C26 medium (glycerol assay); assay type: cell-based, mouse; settings: for glycerol content: 48 h, control 287.44 μM, model 441.95 μM
From the text: Experimental results of compound 4 alleviating 3T3-L1 adipocytes lipolysis.
Glycerol assay was used to evaluate intracellular lipid content. Glycerol kinase phosphorylates glycerol to glycerol 3-phosphate; glycerol 3-phosphate is oxidized by glycerophosphate oxidase to produce hydrogen peroxide; the chromogenic substrate is converted to benzoquinone imine in the presence of peroxidase, and its optical density value is proportional to the glycerol concentration.
The above methods allow to evaluate the effect of drugs on the fat lipolysis cell model. The methods are as follows:
3T3-L1 cells were seeded in 6-well plates in a culture medium (high-glucose DMEM medium containing 10% FBS and 1% P/S) and placed in a 5% CO2, 37° C. environment. The cells were allowed to grow to 100% confluence and continued to fuse for 3 days to start the differentiation operation. The culture medium for the first differentiation was high-glucose DMEM medium containing 0.5 mM IBMX, […], 1 μM dexamethasone and 10% FBS and 1% P/S, and then differentiated 3T3-L1 adipocytes for 72 h; The culture medium for the second differentiation was high-glucose DMEM medium containing […] and 10% FBS, and 1% P/S, and then differentiated 3T3-L1 adipocytes for 72 h; the culture medium for the third differentiation was high-glucose DMEM medium containing 10% FBS, and 1% P/S, and then differentiated 3T3-L1 for 72 h; After successful differentiation, it was obvious that there were a large number of oil droplets in the cells. In addition, C26 cells were inoculated in T75 flasks in the culture medium (high-glucose DMEM medium containing 10% FBS, and 1% P/S) and placed in a 5% CO2, 37° C. environment. While C26 cells (6×10^6 cells/flask) were passaged, add 15 mL of phenol red-free high-glucose DMEM culture medium to the T75 flask with 100% confluent C26 cells and sequentially subculture for 48 h. To obtain the supernatant, centrifuge C26 culture medium at 1000 rpm for 3 min and at 4000 rpm for 10 min successively, and take the supernatant to obtain the C26 supernatant successively. The C26 supernatant was mixed with phenol red-free high-glucose DMEM medium at 1:1 ratio as a fat lipolysis-inducing medium. Except for the control group with phenol red-free high-glucose DMEM medium, the other each group was added with the same amount of fat lipolysis-inducing liquid; one group was used as the model group, and the rest groups were used as the experimental groups for drug administration. At the same time, compound 4 stock solution was also added into the cells at the following concentrations of 12.5 μM, 25 μM, 50 μM, 100 μM.
The glycerol detection method was performed as follows: after 48 h of action, the glycerol content in the supernatant was detected using the glycerol detection kit from Beijing Applygen Gene Technology Co., Ltd.

[2] = system: BALB/c mice bearing C26 tumors; test: C26 tumor cancer cachexia animal model; assay type: in vivo, mouse; settings: 5 mg/kg oral gavage (i.g)
Procedure: The experimental results of cancer cachexia animal models treated with compound 4, by the following methods.
C26 cells were cultured in T75 culture flasks in the culture medium (RPMI-1640 medium containing 10% FBS, and P/S) and placed in a 5% CO2, 37° C. environment. The cells were harvested by centrifugation at 1000 rpm for 3 min, and washed with ice-cold PBS buffer to remove the remaining culture medium and prepared into a cell suspension of 1×10^7 cells/mL. The cell suspension was inoculated into the left and right armpits of BALB/c mice with 1×10^6 cells/mouse for subsequent inoculation. When the tumor volume increased to about […], the tumor was removed and homogenized at 3.5 mL of ice-old saline/g to obtain tumor tissue suspension. The mice to be inoculated were grouped according to their body weight, and the cell suspension was inoculated into the left armpit of BALB/c mice at the amount of 100 μL/mouse. The administration of the drug was started the day after inoculation. Compound 4 was first dissolved in DMSO and then mixed with pre-warmed PBS solution (37° C.) to form a homogeneous and stable solution at a final concentration of 1 mg/mL (3% DMSO+2% anhydrous ethanol+1% polyoxyethylene castor oil). The dose was 5 mg/kg and the route of administration was oral gavage (i.g). The body weight, body temperature, tumor size and food intake of the mice were monitored daily. The mice in the model group were considered to be in the advanced stage of cachexia when they were about 10% weight loss after 16 days. The muscle grip of mice's limbs was measured, and samples of gastrocnemius muscle, epididymal fat and tumor were obtained after the mice were executed by […] and the tissue samples were weighed.
The measurement method of the muscle grasping force is as follows: The researcher holds the mouse steadily with his right hand, puts the mouse on the “YLS-13A rat and mouse grasping force measuring instrument” to let the forelimbs of mouse firmly grasp the grasping plate and uses his left hand to stabilize the grasping plate. To measure the muscle grasping force of the mouse, the researcher slowly releases his left hand from the grasping plate and immediately uses his right hand to pull the mouse's tail backward slowly until the forelimbs are free from the grasping plate. Each mouse is repeated 8 times, and the average value of the 8 times is used as the skeletal muscle strength index of each mouse.
Results and Conclusions: Referring to FIGS. 48 to 58, the three curves in the figures represent the healthy group, the C26 tumor model group and the dosing group (compound 4 group, where compound 4 was administrated at a dose of 5 mg/kg), respectively.

[3] = 25 μM, C26 medium-induced C2C12 myotubes
[4] = 50 μM, C26 medium-induced C2C12 myotubes
[5] = l00 μM, C26 medium-induced C2C12 myotubes
[6] = 12.5 μM, C26 medium-induced C2C12 myotubes
[7] = vs C26 tumor model group, p<0.05

Row | SMILES | Myotube atrophy reversal rate (%) [1, 3] | Myotube atrophy reversal rate (%) [1, 4] | Myotube atrophy reversal rate (%) [1, 5] [%] | other results
1 | CCCCCCCCCCCCCSSC(=S)N1CCCC1 [Compound 5] | 23.27% | 40.28% |  | 
2 | CCCCCCCCCCCSSC(=S)N1CCCC1 [Compound 3] | 35.76% | 33.40% | 46.11 | 
3 | CCCCCCCCCCCCCCCCCCSSC(=S)N1CCCC1 [Compound 8] | −1.83% | 17.41% | 6.10 | reversal of myotube atrophy (activity in words) ([1]; C26 medium-induced C2C12 myotubes): lower
4 | CCCCCCCCCCCCSSC(=S)N1CCC1 [Compound 17] | 26.34% | 53.97% |  | 
5 | CCCCCCCCCCCCSSC(=S)N1CCN(C)CC1 [Compound 16] | 31.39% | 46.75% |  | 
6 | CCCCCCCCCCCCSSC(=S)N1CCc2ccccc21 [Compound 10] | 10.82% | 25.32% | 45.93 | 
7 | CCCCCCCCCCSSC(=S)N1CCCC1 [Compound 2] | 43.90% (25 μM) | 61.05% (50 μM) |  | Myotube atrophy reversal rate (%) [1, 6]: 16.94%
8 | CCCCCCCCCCCCCCCCSSC(=S)N1CCCC1 [Compound 7] | 41.05% | 28.79% | 43.99 | 
9 | CCCCCCCCCCCCSSC(=S)N1CCCCC1 [Compound 14] | 17.02% | 43.19% |  | 
10 | CCCCCCCCCCCCSSC(=S)N1CCC2(COC2)C1 [Compound 11] | 42.30% | 64.65% |  | 
11 | CCCCCCCCCCCCCCSSC(=S)N1CCCC1 [Compound 6] | 20.41% | 35.98% | 33.80 | 
12 | CCCCCCCCCCCCSSC(=S)N1Cc2ccccc2C1 [Compound 9] | 12.22% | 29.24% | 60.06 | 
13 | CCCCCCCCSSC(=S)N1CCCC1 [Compound 1] | 18.39% | 2.51% | 36.26 | 
14 | CCCCCCCCCCCCSSC(=S)N1CCC(O)C1 (stereo not drawn) [Compound 13] | 18.05% | 42.38% |  | 
15 | CCCCCCCCCCCCSSC(=S)N1CCCC1 [Compound 4] |  |  |  | glycerol content (3T3-L1 adipocytes; 12.5 μM compound): 379.44 µM; glycerol content (3T3-L1 adipocytes; 25 μM compound): 347.14 µM; glycerol content (3T3-L1 adipocytes; 50 μM compound): 313.67 µM; glycerol content (3T3-L1 adipocytes; 100 μM compound): 310.95 µM; glycerol released from 3T3-L1 mature adipocytes (in words) (3T3-L1 adipocytes; 12.5-100 μM, C26 cell culture medium induced): concentration-dependent reduction; cancer cachexia symptoms (weight loss, muscle atrophy, fat loss, body temperature decrease) [2]: alleviate the weight loss, muscle atrophy, fat degradation and body temperature decrease; body weight with tumor vs C26 tumor model group ([2]; end of experiment, p<0.01): higher than those in the C26 tumor model group; body weight without tumor vs C26 tumor model group ([2]; end of experiment, p<0.01): higher than those in the C26 tumor model group; food intake ([2]; vs C26 tumor model group): higher food intake than the C26 tumor model group; tumor volume / growth of C26 tumors ([2]; vs C26 tumor model group): no significant inhibitory effect; epididymal fat mass [2, 7]: significantly increase the epididymal fat mass; gastrocnemius muscle mass [2, 7]: significantly alleviate gastrocnemius muscle atrophy; muscle grasping force [2, 7]: significantly enhance the muscle grasping force; Myotube atrophy reversal rate (%) ([1]; 3.125 μM, C26 medium-induced C2C12 myotubes): 37.78%; Myotube atrophy reversal rate (%) ([1]; 6.25 μM, C26 medium-induced C2C12 myotubes): 54.53%; cytotoxicity (in words) ([1]; 12.5 μM): non-cytotoxic; Myotube atrophy reversal rate (%) [1, 6]: 92.83%; Myotube atrophy reversal rate (%) ([1]; 12.5 μM, C26 medium-induced C2C12 myotubes, listed as compound 4): 92.83%
16 | CCCCCCCCCCCCSSC(=S)N1CCOCC1 [Compound 15] | 26.47% | 48.24% |  | 
17 | CCCCCCCCCCCCSSC(=S)N1CC2CCCCC2C1 (stereo not drawn) [Compound 12] | 20.85% | 49.43% | 66.73 | 
